From patent publication US20210393742A1, “LONG-ACTING INTERLEUKIN-15 RECEPTOR AGONIST IN COMBINATION WITH ANOTHER PHARMACOLOGICALLY ACTIVE AGENT” (Nektar Therapeutics, priority 2018, published 2021)

Tests used:
Type in all cases: cell-based
[1] = tested on: human PBMCs; assay: Secreted granzyme B in PBMC culture media by ELISA (Example 6); settings: overnight, Conjugate 1 1 μg/ml, plate coated with hIgG 0.1 mg/ml
Protocol: Functional activation of human NK cells within a human peripheral blood mononuclear cells (PBMCs) preparation was induced in vitro. PBMCs from two donors were incubated overnight in the presence of (i) mono(methoxyPEG-N-butanamide)40 kD interleukin-15 (Conjugate 1) at a concentration of 1 μg/ml; (ii) on cell culture plastic that had been prior coated overnight with human total immunoglobulin G (hIgG) solution at a concentration of 0.1 mg/ml (iii) on cell culture plastic that had been prior coated overnight with human total immunoglobulin G (hIgG) solution at a concentration of 0.1 mg/ml and in the presence of Conjugate 1 at a concentration of 1 μg/ml; or (iv) on regular cell culture plastic.
After the incubation period, NK cell activation was measured with flow cytometry by measuring the increase of median fluorescence intensity (MFI) signal of CD69 (FIG. 9A) and CD107a (FIG. 9B) detecting antibodies on the surface of CD56+ human NK cells within the PBMCs. Functional activation of NK cells was assessed by calculating the fold-change in MFI when comparing control condition where the cells were exposed to neither hIgG nor Conjugate 1. […] Secreted granzyme B concentration also indicative of NK cell activation in the culture media at the end of the experiment was measured by ELISA (FIG. 9C).

[2] = tested on: human multiple myeloma RPMI-8226 cells; assay: NK cell cytotoxicity (ADCC) against daratumumab pre-coated RPMI-8226 cells (Example 9); settings: NK cells primed with 1000 ng/mL overnight; targets pre-coated with daratumumab 100 ng/mL; E:T 10:1, 3 hr
Protocol: (§1) Human NK cells were magnetically sorted from normal donor PBMCs using negative selection. NK cells were seeded in a 96-well U-bottom plate at a density of 400,000 cells/well. NK cells were stimulated with 1000 ng/mL of a long-acting IL-15 receptor agonist (mono(mPEG-butanamide)IL-15) (+) or left unstimulated (−) in complete RPMI-1640 media supplemented with 10% fetal bovine serum (FBS) and 1% antibiotic/antimycotic overnight at 37° C. in 5% CO2.
The human multiple myeloma RPMI-8226 cells (ATCC #CCL-155) were washed in PBS and stained with 0.15 μM CFSE for 5 min at 37° C. The tumor cells were pre-coated with 100 ng/mL daratumumab (+) for 1 hr at 37° C. where indicated. The stimulated NK cells (effector cells) and the pre-coated CFSE-labeled tumor cells (target cells) were co-cultured in an E:T ratio of 10:1 for 3 hr at 37° C. in 5% CO2. Following incubation, cells were washed in flow staining buffer, Fc-blocked for 15 min at 4° C., and surface-stained (CD45, CD56, CD3-fluorescently conjugated antibodies). The cells were washed in PBS and incubated in 7-aminoactinomycin (7-AAD) viability stain for 30 minutes at 4° C. before acquiring for flow cytometric analysis using a Fortessa (BD). The percentage of 7-AAD+CFSE+ target cells from total cell population is the percentage for dead tumor cells.

[3] = tested on: FaDu cells; assay: ADCC of cetuximab-coated FaDu cells by primed human NK cells (Example 20); settings: NK cells primed with 300 ng/mL overnight; cetuximab 300 ng/mL; E:T 10:1, 3 hours
Protocol: as §1, with “mono(methoxyPEG-N-butanamide)40 kD interleukin-15 (Compound 1) (300 ng/mL)” for “1000 ng/mL of a long-acting IL-15 receptor agonist (mono(mPEG-butanamide)IL-15)”
The epithelial/pharyngeal head and neck human FaDu cells (ATCC #HTB-43) were cultured in minimal eagle's essential media (EMEM; ATCC+30-2003) supplemented with 10% fetal bovine serum (FBS) and 1% antibiotic/antimycotic at 37° C. in 5% CO2. FaDu cells were subcultured by incubating in 0.25% Trypsin-0.53 mM EDTA for 5 min at 37° C., washed in sterile PBS, resuspended in culture media, counted, and co-cultured with the NK cells using an effector:target (E:T) of 10:1. […] Following incubation, cells were washed in flow staining buffer, Fc-blocked for 15 min at 4° C., and surface-stained (CD45, CD56, CD3-fluorescently conjugated antibodies) for 20 min at 4° C. in the dark. The cells were washed in PBS and incubated in 7-aminoactinomycin (7-AAD) viability stain for 30 minutes at 4° C. before acquiring for flow cytometric analysis using a Fortessa (BD). […]

mono(methoxyPEG-N-butanamide)40 kD interleukin-15 [Conjugate 1]
Granzyme B concentration [1]: 56 pg/mL
Granzyme B concentration fold-change relative to no stimulation control [1]: 4.1 fold
ADCC, % 7-AAD+ target cells [2]: enhanced ADCC of daratumumab pre-coated multiple myeloma cells
ADCC, % 7-AAD+CD45- target cells [3]: enhance ADCC of cetuximab-coated human solid tumor cells
